Where two headings read alike, the source gives them in different places.
Columns and labels:
[1] = biological target: T1, EmrE (dimeric, detergent-free OspA-EmrE-ApoAI*) (UniProt P02647+P23895); experiment: Ligand binding by tryptophan fluorescence quenching, in vivo solubilized EmrE; set-up: species or system E. coli; settings: for binding affinity of OspA-EmrE-ApoAI* compared to detergent-solubilized EmrE: 10 μM protein, EmrE comparator in DDM buffer
T1 construct: made in house; host or cells: E. coli BL21(DE3), pET28a
Description: Fluorescence spectra of protein samples were collected using a Fluorolog-Tau-3 time-resolved spectrofluorometer (Horiba). Protein concentration of OspA-EmrE-ApoAI* in SEC buffer and EmrE in DDM containing buffer (20 mM Tris-HCl, pH 7.5, 150 mM NaCl, and 0.08% w/v DDM) was 10 μM. Fluorescence spectra using a 295-nm excitation were collected after each volume of ligand. A small magnetic stir bar was added to the 1-cm path-length quartz cuvette containing either the sample or buffer. The stirring speed was set such that the surface was not noticeably disturbed. Approximately 1 min was allowed between the addition of ligand and the beginning of spectra collection. A total of 3 replicates were performed with the first sample preparation to control for experimental variability. After this, only one experimental replicate of the following second and third sample preparations were performed. Thus, each ligand-binding curve reflects the average of 3 replicates from 3 different protein preparations to control for biological and preparation variability. A 10-nm slit width was used for both excitation and emission. The interval was set at 2.0 nm and the integration time at 0.1 s. Only one scan of the emission between 300 and 400 nm was collected per titration. […] Quenching of fluorescence was recorded and plotted using GraphPad PRISM 6.
It was next determined whether EmrE that had been solubilized by fusion to ApoAI* was able to bind to known ligands. […] There are a total of 14 aromatic amino acids in EmrE (4 tryptophans, 5 tyrosines, and 5 phenylalanines), some of which participate in ligand binding and protein stability and permit determination of binding constants based on fluorescence quenching (Bay et al., “Spectroscopic Analysis of Small Multidrug Resistance Protein EmrE in the Presence of Various Quaternary Cation Compounds,” Biochim. Biophys. Acta 1818:1318-31 (2012), which is hereby incorporated by reference in its entirety). The ligand binding activity of dimeric, detergent-free OspA-EmrE-ApoAI* was measured and compared to detergent-solubilized EmrE. […]

[2] = biological target: in vitro solubilized EmrE (Escherichia coli, UniProt P23895); settings: cited from earlier work
[3] = biological target: T2, cytochrome P450c17 (17α-hydroxylase/17,20-lyase; CYP17A1) (Homo sapiens, UniProt P05093); settings: cited from earlier work
T2 sequence (P05093 1-508): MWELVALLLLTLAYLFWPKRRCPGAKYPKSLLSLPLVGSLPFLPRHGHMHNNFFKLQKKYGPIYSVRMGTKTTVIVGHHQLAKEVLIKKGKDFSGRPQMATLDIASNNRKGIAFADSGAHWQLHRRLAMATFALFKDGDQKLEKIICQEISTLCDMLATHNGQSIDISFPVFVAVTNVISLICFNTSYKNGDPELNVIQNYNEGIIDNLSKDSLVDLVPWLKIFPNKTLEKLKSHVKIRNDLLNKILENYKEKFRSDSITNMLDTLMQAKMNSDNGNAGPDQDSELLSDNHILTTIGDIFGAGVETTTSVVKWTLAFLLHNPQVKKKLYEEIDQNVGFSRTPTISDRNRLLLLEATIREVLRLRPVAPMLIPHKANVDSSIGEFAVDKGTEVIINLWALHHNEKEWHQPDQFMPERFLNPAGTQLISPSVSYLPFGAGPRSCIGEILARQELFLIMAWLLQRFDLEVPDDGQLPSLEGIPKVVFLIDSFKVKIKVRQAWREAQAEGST

[4] = biological target: T3, CYP17A1 (Homo sapiens, UniProt P05093); experiment: Lyase assay: augmentation of CYP17A1 lyase activity by cyt b5 variants; type: biochemical
T3 construct: microsomes containing native CYP17A1 (5 pmol); made in house; host or cells: transformed yeast (microsomes)
T3 sequence (P05093 1-508): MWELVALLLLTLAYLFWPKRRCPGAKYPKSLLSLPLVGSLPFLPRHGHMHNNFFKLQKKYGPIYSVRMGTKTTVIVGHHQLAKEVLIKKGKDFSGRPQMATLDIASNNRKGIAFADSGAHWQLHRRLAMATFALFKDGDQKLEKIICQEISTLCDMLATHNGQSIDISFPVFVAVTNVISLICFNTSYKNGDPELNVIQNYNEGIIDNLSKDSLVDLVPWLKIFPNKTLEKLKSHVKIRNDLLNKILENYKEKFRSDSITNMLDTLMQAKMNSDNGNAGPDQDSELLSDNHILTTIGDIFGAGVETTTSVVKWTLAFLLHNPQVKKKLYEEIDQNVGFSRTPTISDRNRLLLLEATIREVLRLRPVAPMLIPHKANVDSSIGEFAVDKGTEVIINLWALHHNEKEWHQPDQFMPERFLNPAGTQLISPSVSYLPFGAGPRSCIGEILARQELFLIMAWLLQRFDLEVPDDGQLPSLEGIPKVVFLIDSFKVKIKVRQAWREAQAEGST
Description: In a 2-ml polypropylene tube, microsomes containing native CYP17A1 (5 pmol) and cytochrome P450 oxidoreductase ([…]), at room temperature for 5 min before adding substrate. The reaction mixture was then diluted to 0.2 ml with 50 mM potassium phosphate buffer (pH 7.4), and substrate 17-hydroxypregnelonone (17-P5; 5 μM with 80,000 CPM in methanol, 2% of incubation volume) was added. The resulting mixture was pre-incubated at 37° C. for 3 min before adding NADPH (1 mM) and incubating at 37° C. for another 20 min. The reaction mixture was extracted with 1 ml dichloromethane, and the organic phase was dried under nitrogen flow. Steroids were analyzed using an Agilent 1260 Infinity HPLC system with UV detector and β-RAM4 in-line scintillation counter (LabLogic, Brandon, Fla.). Extracted steroid products were dissolved in 20 μl of methanol, and 5 μl injections were resolved with a 50×2.1 mm, 2.6 μm, C8 Kinetex column (Phenomenex, Torrance, Calif.), equipped with a guard column at a flow rate of 0.4 mL min^−1. A methanol/water linear gradient was used: 27% methanol from 0 to 0.5 min, 39% to 16 min, 44% to 20 min, 60% to 22 min, 71% to 30 min, 75% to 30.5 min, 27% to 33 min. Products were identified by retention times of external standards chromatographed at the beginning and ends of the experiments. The flow rate of the scintillation cocktail (Bio-SafeII, Research Products International, Mount Prospect, Ill.) was 1.2 mL min^−1, and the data were processed with Laura4 software (LabLogic).

c1ccc([P+](c2ccccc2)(c2ccccc2)c2ccccc2)cc1 [TPP+, tetraphenylphosphonium]
binding affinity of OspA-EmrE-ApoAI* compared to detergent-solubilized EmrE [1]: higher

C[n+]1ccc(-c2cc[n+](C)cc2)cc1 [MV, methyl viologen]
Kd ([2]; in vitro solubilized EmrE in dodecylmaltoside): 46.2 µM
Kd ([2]; in vitro solubilized EmrE in small unilamellar vesicles): 38.2 µM
Kd ([2]; in vitro solubilized EmrE in sodium dodecyl sulphate): 5.4 µM
binding affinity of OspA-EmrE-ApoAI* compared to detergent-solubilized EmrE [1]: higher
Kd ([1]; in vivo solubilized EmrE, detergent-free): 48 µM

B1: detergent-solubilized cyt b5: wild-type human cytochrome b5 that had been detergent solubilized (protein)
chain: MAEQSDEAVKYYTLEEIQKHNHSKSTWLILHHKVYDLTKFLEEHPGGEEVLREQAGGDATENFEDVGHSTDAREMSKTFIIGELHPDDRPKLNKPPETLITTIDSSSSWWTNWVIPAISAVAVALMYRLYMAED
stimulation of 17,20-lyase activity ([3]; recombinant cyt b5 from E. coli, literature): stimulated 17,20-lyase activity
stimulation of lyase activity compared to the in vivo solubilized version [4]: slightly better stimulator of lyase activity
stimulation of CYP17A1 lyase activity (DHEA formed from 17-P5) ([4]; 5-25 pmol cyt b5 variant): plateaued
stimulation of CYP17A1 lyase activity ([4]; at slightly lower concentrations): dose-dependent stimulation

B2: cyt b5: human cytochrome b5, 134-residue bitopic membrane protein (protein, UniProt P00167 1-134, looked up)
chain: MAEQSDEAVKYYTLEEIQKHNHSKSTWLILHHKVYDLTKFLEEHPGGEEVLREQAGGDATENFEDVGHSTDAREMSKTFIIGELHPDDRPKLNKPPETLITTIDSSSSWWTNWVIPAISAVAVALMYRLYMAED
modifications: full-length
notes: human cytochrome b5, 134-residue bitopic membrane protein
increase of the rate of the 17,20-lyase reaction ([3]; a molar equivalent of cyt b5): 10 fold

From US10961286B2, “Nucleic acids, vectors, host cells, and methods for recombinantly producing water-soluble membrane proteins” (CORNELL UNIVERSITY, priority 2014, dated 2021)
